Measurements taken from patent US20180169117A1, “PHARMACEUTICAL FORMULATION COMPRISING A SUBSTITUTED PHENYL - (1,3-DIHYDRO-ISOINDOL-2-YL) - METHANONE” (OTSUKA PHARMACEUTICAL CO., LTD., priority 2014, published 2018).
Read-outs that look alike come from different tables or passages of the source.

Columns and labels:
[1] = test system: Bortezomib refractory multiple myeloma cell lines; conditions: Mitsiades et al. 2006; cited from earlier work
[2] = test system: MM-1 cells; conditions: 17-AAG treated MM-1 cells; Mitsiades et al. 2006; cited from earlier work
[3] = Solubility in deionised water, acetate, succinate and citrate buffers (Example 5); assay type: physicochemical; conditions: thermodynamic from solid, read-out: Solubility L-lactate salt of compound of formula (I)
Procedure: (§1) Aliquots of 1 g of the L-lactate salt of the compound of formula (I) were weighed into individual 20 ml scintillation vials and 10 ml of each buffer was added to a vial. An additional sample was prepared in deionised water. Samples were covered in aluminium foil to protect from light and mixed using a magnetic stirrer overnight.
(§2) The appearance of each sample was recorded. Samples were transferred to centrifuge tubes and centrifuged at 3500rpm for 15 minutes. The samples prepared using the 200 mM buffers were visually free of undissolved material, but were centrifuged in order to make sure that all samples were treated the same. The supernatants were retained for determination of compound of formula (I) by UV and pH measurement.
(§3) Assay by UV: A calibration curve was prepared using the L-lactate salt of the compound of formula (I) dissolved in deionised water and covering the range 0 to 0.10 mg/ml. Absorbance was determined at 286 nm. Samples were diluted as necessary using deionised water and absorbance determined at 286 nm versus a blank. The content of the compound of formula (I) was determined using the standard curve. All UV readings were taken in duplicate.
In a manner analogous to Example 3, formulations were prepared of the L-lactate salt of the compound of formula (I) with acetate, succinate and citrate buffers at different concentrations and at different pH. As shown in the table below, neither the acetate nor citrate buffers were as useful as the phosphate buffer formulation of Example 3, but the succinate buffer gave good L-lactate salt solubility.

[4] = Effect of surfactant (polysorbate 80, Tween) on solubility in phosphate buffer pH 7.2 (Example 6); assay type: physicochemical; conditions: for increase in solubility on addition of Tween: physiological pH, 1-8 (w/v) Tween versus no Tween; for solubility: sodium phosphate buffer, 200 mM phosphate, read-out: Solubility of L-lactate salt of compound of formula (I)
Procedure: Solutions of sodium phosphate buffer at a pH of 7.2 were prepared with and without polysorbate 80 (Tween) and the solubilities of the L-lactate salt of the compound of formula (I) were determined.

[5] = physchem; assay type: physicochemical; conditions: for solubility thermodynamic / solubility: aqueous buffer, thermodynamic from solid, read-out: L-Lactate Salt of Compound of Formula (I) Concentration
Procedure: Buffers were prepared using monobasic and dibasic salts of sodium phosphate in order to achieve the correct buffer concentrations and pH as follows:
The pH of each buffer was the target pH±0.05. Minor adjustments with small amounts of dilute sodium hydroxide were made to both of the 200 mM buffers to meet this criterion.
as §1, §2, §3

[6] = test system: K562 cells; conditions: Gone et al. 2002; cited from earlier work
[7] = test system: patients with advanced solid tumours; assay: Phase I study, Two-Consecutive Day (QDx2) dosing schedule; assay type: in vivo, human
[8] = test system: refractory solid tumours; conditions: including three GIST patients; Mahadevan et al. 2012; cited from earlier work
[9] = test system: vemurafenib sensitive and resistant models of melanoma; conditions: Rodriguez-Lopez et al., AACR 2012; cited from earlier work
[10] = test system: HSP90; assay: Hsp90 inhibition (statement); assay type: biochemical; conditions: no value
[11] = test system: solid tumours refractory to standard therapy; conditions: cited from earlier work

Structure (SMILES): C=CCNC1=C2C[C@@H](C)C[C@H](OC)[C@H](O)[C@@H](C)/C=C(\C)[C@H](OC(N)=O)[C@@H](OC)/C=C\C=C(/C)C(=O)NC(=CC1=O)C2=O [17-AAG]
- proliferation [1]: potently inhibits proliferation
- cell surface levels of IGF-1R and IL-6R [2]: diminished

Structure (SMILES): CC(C)c1cc(C(=O)N2Cc3ccc(CN4CCN(C)CC4)cc3C2)c(O)cc1O.C[C@H](O)C(=O)O [(2,4-Dihydroxy-5-isopropyl-phenyl)-[5-(4-methyl-piperazin-1-ylmethyl)-1,3-dihydro-isoindol-2-yl]-methanone L-lactate salt]
- solubility ([3]; acetate buffer, aqueous buffer, 50 mM Acetate pH 5.5, pH 4.87): 24.4 mg/mL
- solubility ([3]; acetate buffer, aqueous buffer, 50 mM Acetate pH 6.0, pH 5.03): 19.1 mg/mL
- solubility ([3]; citrate buffer, aqueous buffer, 50 mM Citrate pH 5.5, pH 5.23): 85.6 mg/mL
- solubility ([3]; citrate buffer, aqueous buffer, 50 mM Citrate pH 6.0, pH 5.55): 83.9 mg/mL
- solubility ([3]; succinate buffer, aqueous buffer, 50 mM Succinate pH 5.5, pH 5.38): 78.3 mg/mL
- solubility ([3]; succinate buffer, aqueous buffer, 50 mM Succinate pH 6.0, pH 5.69): 78.3 mg/mL
- solubility ([3]; succinate buffer, aqueous buffer, 100 mM Succinate pH 6.0, pH 5.76): 89.9 mg/mL
- solubility ([3]; succinate buffer, pH 5.3, aqueous buffer, 100 mM Succinate pH 5.5, pH 5.30): 89.2 mg/mL
- solubility ([3]; Deionised water, pH 5.52): 59.5 mg/mL
- increase in solubility on addition of Tween [4]: 1.5 fold
- increase in solubility on addition of Tween ([4]; listed as lactate salt of the compound of formula (I)): approximately 1.5 fold
- solubility ([4]; aqueous buffer, pH 7.2, Tween 0 % (w/v)): 21 mg/mL
- solubility ([4]; aqueous with cosolvent or surfactant or cyclodextrin, pH 7.2, Tween 1-8 % (w/v)): 33 to 34 mg/mL
- solubility thermodynamic ([5]; sodium phosphate buffer 50 mM/pH 5.0, pH of supernatant 5.13): 77.3 mg/mL
- solubility thermodynamic ([5]; sodium phosphate buffer 50 mM/pH 5.5, pH of supernatant 5.18): 75.9 mg/mL
- solubility ([5]; sodium phosphate buffer 200 mM/pH 5.0 (fifth line of table), pH of supernatant 4.99): ≥ 95.7 mg/mL
- solubility ([5]; sodium phosphate buffer 200 mM/pH 5.5, pH of supernatant 5.08): ≥ 94.8 mg/mL
- L-Lactate Salt of Compound of Formula (I) Concentration ([5]; sodium phosphate buffer 100 mM/pH 5.5, pH of supernatant 5.10): 86.3 mg/mL
- L-Lactate Salt of Compound of Formula (I) Concentration ([5]; sodium phosphate buffer 200 mM/pH 5.0 (third line of table), pH of supernatant 5.05): 89.0 mg/mL

Structure (SMILES): Cc1ccc(NC(=O)c2ccc(CN3CCN(C)CC3)cc2)cc1Nc1nccc(-c2cccnc2)n1 [Gleevec]
- apoptosis [6]: induces apoptosis

Structure (SMILES): CC(C)c1cc(C(=O)N2Cc3ccc(CN4CCN(C)CC4)cc3C2)c(O)cc1O [compound of formula (I), (2,4-Dihydroxy-5-isopropyl-phenyl)-[5-(4-methyl-piperazin-1-ylmethyl)-1,3-dihydro-isoindol-2-yl]-methanone]
- tolerability [7]: well tolerated
- objective and durable partial response and stable disease [8]: five patients
- efficacy in melanoma models [9]: effective
- HSP90 inhibition [10]: potent HSP90 inhibitor
- PET scan, metabolic activity of the tumour ([11]; GIST patient, 220 mg/m^2 weekly, before and after treatment, Shapiro 2011): substantial reduction in the metabolic activity of the tumour
- stable disease for beyond 2 cycles of treatment ([11]; twice weekly schedule, further patients, Shapiro et al. 2010): five of the original twenty one patients
- stable disease for at least six months ([11]; twice weekly schedule, one melanoma, one thyroid cancer, Shapiro et al. 2010): two of the original twenty one patients
